Test results taken from patent publication US7501412B2, “Isoquinoline compounds and medicinal use thereof” (Mitsubishi Tanabe Pharma Corporation, priority 2002, dated 2009).
Structures can show the parent of a compound that is named as a salt.

Tested on: not given
Assay: not given
Conditions: not given

melting point [°C] | SMILES
224.9 to 226.2 | COc1ccc2c(C3CCN(C)CC3)c[nH]c(=O)c2c1 [Example 201, 7-Methoxy-4-(1-methylpiperidin-4-yl)-2H-isoquinolin-1-one]
227.6 to 229.3 | CN1CCC(c2c[nH]c(=O)c3c(F)cccc23)CC1
231.8 to 234.6 | CN1CCC(c2c[nH]c(=O)c3cc(C(F)(F)F)ccc23)CC1 (as salt: hydrochloride) [Example 198, 4-(1-Methylpiperidin-4-yl)-7-trifluoromethyl-2H-isoquinolin-1-one]
212.8 to 214.8 | Cc1ccc2c(C3CCN(C)CC3)c[nH]c(=O)c2c1

Biological target: T1, recombinant human PARP (Homo sapiens, UniProt P09874)
T1 construct: purchased Trevigen 4667-02X
T1 sequence (P09874 whole entry): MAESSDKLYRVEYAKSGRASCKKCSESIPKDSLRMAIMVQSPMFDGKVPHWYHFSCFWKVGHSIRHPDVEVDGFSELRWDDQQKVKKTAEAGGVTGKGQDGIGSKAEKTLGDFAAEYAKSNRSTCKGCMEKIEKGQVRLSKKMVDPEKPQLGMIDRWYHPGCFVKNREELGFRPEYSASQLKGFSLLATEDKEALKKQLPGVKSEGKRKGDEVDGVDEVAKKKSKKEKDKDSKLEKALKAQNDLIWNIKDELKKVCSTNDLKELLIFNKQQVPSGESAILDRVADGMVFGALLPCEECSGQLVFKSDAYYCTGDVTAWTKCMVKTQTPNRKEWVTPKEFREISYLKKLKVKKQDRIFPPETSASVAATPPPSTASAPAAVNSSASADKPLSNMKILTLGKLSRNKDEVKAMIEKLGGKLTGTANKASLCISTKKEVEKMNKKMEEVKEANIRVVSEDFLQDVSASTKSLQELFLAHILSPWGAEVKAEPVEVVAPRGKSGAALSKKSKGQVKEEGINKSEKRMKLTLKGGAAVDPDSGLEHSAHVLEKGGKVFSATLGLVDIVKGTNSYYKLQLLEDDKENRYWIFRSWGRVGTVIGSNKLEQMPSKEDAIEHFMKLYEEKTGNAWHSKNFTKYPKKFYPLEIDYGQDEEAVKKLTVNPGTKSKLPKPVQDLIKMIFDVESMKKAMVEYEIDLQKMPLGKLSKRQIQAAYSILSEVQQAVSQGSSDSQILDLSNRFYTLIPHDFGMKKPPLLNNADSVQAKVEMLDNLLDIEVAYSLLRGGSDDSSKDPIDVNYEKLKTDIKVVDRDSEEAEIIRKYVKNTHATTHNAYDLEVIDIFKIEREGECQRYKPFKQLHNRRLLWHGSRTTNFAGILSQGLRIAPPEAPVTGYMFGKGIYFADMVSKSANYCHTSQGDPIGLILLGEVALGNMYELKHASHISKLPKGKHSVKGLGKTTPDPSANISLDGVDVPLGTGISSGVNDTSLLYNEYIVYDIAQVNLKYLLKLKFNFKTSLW
Assay: PARP enzyme activity inhibitory action
Type: biochemical
Conditions: recombinant human PARP (Trevigen), 3H-NAD, activated DNA, 25° C. for 15 min
Description: After incubation at 25° C. for 15 min., the reaction was stopped by adding 20% trichloroacetic acid, and the resulting acid insoluble fraction was adsorbed to a GF/B filter. Then, the filter was washed several times with 5% trichloroacetic acid, and the radioactivity on the filter was measured with a liquid scintillation counter.

IC50 [nM] | SMILES
25 | CCN1CCC(c2nn(C)c3[nH]c(=O)c4ccccc4c23)CC1 [Ex. 210, 1-(1-Ethylpiperidin-4-yl)-3-methyl-pyrazolo[3,4-c]isoquinolin-5(4H)-one]
47 | CCN1CCC(c2c[nH]c(=O)c3cc(F)ccc23)CC1 [Ex. 212, 7-Fluoro-4-(1-ethylpiperidin-4-yl)-2H-isoquinolin-1-one]
30 | CCN1CCC(c2nn(C)c3[nH]c(=O)c4cc(F)ccc4c23)CC1 [Ex. 223, 1-(1-Ethylpiperidin-4-yl)-7-fluoro-3-methyl-pyrazolo[3,4-c]isoquinolin-5(4H)-one]
143 | CN1CCN(Cc2nn(C)c3[nH]c(=O)c4ccccc4c23)CC1 [Ex. 21, 3-Methyl-1-((4-methylpiperazin-1-yl)methyl)-3H-pyrazolo[3,4-c]isoquinolin-5(4H)-one]
40 | CN(C)CC(=O)c1c(N)[nH]c(=O)c2cc(F)ccc12 [Ex. 14, 3-Amino-4-(2-(dimethylamino)acetyl)-7-fluoro-2H-isoquinolin-1-one hydrochloride]
47 | CCCN1CCC(c2nn(C)c3[nH]c(=O)c4ccccc4c23)CC1 [Ex. 226, 1-(1-Propylpiperidin-4-yl)-3-methyl-pyrazolo[3,4-c]isoquinolin-5(4H)-one]
24 | O=c1[nH]cc(C2CCN(CCO)CC2)c2ccc(F)cc12 [Ex. 48, 7-Fluoro-4-(1-(2-hydroxyethyl)piperidin-4-yl)-2H-isoquinolin-1-one hydrochloride]
43 | CN(C)CC(=O)c1c(N)[nH]c(=O)c2ccccc12 [Ex. 1, 3-amino-4-(2-(dimethylamino)acetyl)-2H-isoquinolin-1-one hydrochloride monohydrate]
43 | CN1CCC(c2nn(C)c3[nH]c(=O)c4ccccc4c23)CC1 [Ex. 209, 1-(1-methylpiperidin-4-yl)-3-methyl-pyrazolo[3,4-c]isoquinolin-5(4H)-one]
23 | CN1CCC(c2c[nH]c(=O)c3cc(F)ccc23)CC1 [Ex. 47, 7-Fluoro-4-(1-methylpiperidin-4-yl)-2H-isoquinolin-1-one hydrochloride]
31 | O=c1[nH]cc(C2CCNCC2)c2ccccc12 [Ex. 31, 4-(piperidin-4-yl)-2H-isoquinolin-1-one hydrochloride]
67 | Cc1[nH]c(=O)c2ccccc2c1CN1CCCC1 [Ex. 25, 3-Methyl-4-(pyrrolidin-1-yl)methyl-2H-isoquinolin-1-one]
40 | CN1CCC(c2c[nH]c(=O)c3ccccc23)CC1 [Ex. 33, 4-(1-methylpiperidin-4-yl)-2H-isoquinolin-1-one]
22 | O=c1[nH]cc(C2CCNCC2)c2ccc(F)cc12 [Ex. 45, 7-Fluoro-4-(piperidin-4-yl)-2H-isoquinolin-1-one hydrochloride]
22 | O=c1[nH]cc(C2CCNCC2)c2ccc(Cl)cc12 [Ex. 44, 7-Chloro-4-(piperidin-4-yl)-2H-isoquinolin-1-one hydrochloride]
44 | CN1CCC(c2nn(C)c3[nH]c(=O)c4cc(F)ccc4c23)CC1 [Ex. 222, 7-Fluoro-1-(1-methylpiperidin-4-yl)-3-methyl-pyrazolo[3,4-c]isoquinolin-5(4H)-one]
34 | O=c1[nH]cc(C2CCN(CCO)CC2)c2ccccc12 [Ex. 32, 4-(1-(2-hydroxyethyl)piperidin-4-yl)-2H-isoquinolin-1-one]
37 | CN1CCC(c2c[nH]c(=O)c3cc(Cl)ccc23)CC1 [Ex. 46, 7-Chloro-4-(1-methylpiperidin-4-yl)-2H-isoquinolin-1-one]
39 | Cc1[nH]c(=O)c2cc(Cl)ccc2c1CN1CCCC1 [Ex. 27, 7-chloro-3-methyl-4-((pyrrolidin-1-yl)methyl)-2H-isoquinolin-1-one]
42 | CCCN1CCC(c2nn(C)c3[nH]c(=O)c4cc(F)ccc4c23)CC1 [Ex. 225, 7-Fluoro-1-(1-propylpiperidin-4-yl)-3-methyl-pyrazolo[3,4-c]isoquinolin-5(4H)-one]
45 | Cc1[nH]c(=O)c2cc(F)ccc2c1CN1CCCC1 [Ex. 28, 7-Fluoro-3-methyl-4-((pyrrolidin-1-yl)methyl)-2H-isoquinolin-1-one]
30 | Cn1nc(C2CCNCC2)c2c3ccc(F)cc3c(=O)[nH]c21 [Ex. 221, 7-Fluoro-1-(piperidin-4-yl)-3-methyl-pyrazolo[3,4-c]isoquinolin-5(4H)-one hydrochloride]
32 | Cn1nc(CN2CCCC2)c2c3ccccc3c(=O)[nH]c21 [Ex. 7, 3-methyl-1-(pyrrolidin-1-yl)methyl-3H-pyrazolo[3,4-c]isoquinolin-5(4H)-one]

SMILES | IC50 [nM]
O=C1NCCc2c(OCCCCN3CCCCC3)cccc21 [DPQ, 3,4-dihydro-5-[4-(1-piperidinyl)-butoxy]-1(2H)-isoquinolinone, reference compound] | 1000
